Values joined by “and” are separate entries in the source; they are usually repeats but may differ in a detail not shown here. Equal entries are not always repeated. Where two headings read alike, the source gives them in different places.
Assays:
[1] = system: DosR-regulated genes (dosR, hspX and tgs1); format: cell-based, Mycobacterium tuberculosis
DosS = format: biochemical, Mycobacterium tuberculosis
CDC1551(ΔdosR) mutant = format: cell-based; conditions: for log2 Fold change: DosR mutant, HC101A vs DMSO; for Counts per million (CPM): DosR mutant treated with HC101A, replicates 1, 2

C[C@@H]1CC[C@H]2[C@@H](C)C(=O)O[C@@H]3O[C@]4(C)CC[C@@H]1[C@]32OO4 [HC101A, artemisinin, reference compound]
resistance to artemisinin of DosT (G115L) vs WT DosT or DosT (G85L) [1]: ~5 fold
oxidation of DosS (E87L) and DosS (G117L) proteins by artemisinin (DosS): resistant to oxidation
downregulated genes in CDC1551(ΔdosR) mutant treated with compound (CDC1551(ΔdosR) mutant; 40 μM, 6 days, >2-fold, p<0.05): 69 genes
log2 Fold change (CDC1551(ΔdosR) mutant; gene MT0169 Rv0160c PE): −1.408
log2 Fold change (CDC1551(ΔdosR) mutant; gene MT0258 Rv0244c fadE5): −1.069
log2 Fold change (CDC1551(ΔdosR) mutant; gene MT0273 Rv0260c): −1.854
Counts per million (CPM) (CDC1551(ΔdosR) mutant; gene MT0292 Rv0280 PPE): 31.79 CPM and 16.54 CPM
log2 Fold change (CDC1551(ΔdosR) mutant; gene MT0292 Rv0280 PPE): −1.247
Counts per million (CPM) (CDC1551(ΔdosR) mutant; gene MT0329 Rv0315): 113.2 CPM and 189.1 CPM
log2 Fold change (CDC1551(ΔdosR) mutant; gene MT0329 Rv0315): −1.246
Counts per million (CPM) (CDC1551(ΔdosR) mutant; gene MT0456 Rv0440 groEL2): 5,842.91 CPM and 4,666.11 CPM
log2 Fold change (CDC1551(ΔdosR) mutant; gene MT0456 Rv0440 groEL2): −1.245
Counts per million (CPM) (CDC1551(ΔdosR) mutant; gene MT0483 Rv0467 aceA): 884.5 CPM and 561.1 CPM
log2 Fold change (CDC1551(ΔdosR) mutant; gene MT0483 Rv0467 aceA): −1.499
Counts per million (CPM) (CDC1551(ΔdosR) mutant; gene MT0484): 179.4 CPM and 142.8 CPM
log2 Fold change (CDC1551(ΔdosR) mutant; gene MT0484): −1.278
Counts per million (CPM) (CDC1551(ΔdosR) mutant; gene MT0493 Rv0475): 790.8 CPM and 938.1 CPM
log2 Fold change (CDC1551(ΔdosR) mutant; gene MT0493 Rv0475): −1.077
log2 Fold change (CDC1551(ΔdosR) mutant; gene MT0532 Rv0511 cysG): 1.218
log2 Fold change (CDC1551(ΔdosR) mutant; gene MT0533 Rv0512 hemB): 1.276
log2 Fold change (CDC1551(ΔdosR) mutant; gene MT0583 Rv0557): 1.113
log2 Fold change (CDC1551(ΔdosR) mutant; gene MT0586 Rv0560c): 1.95
log2 Fold change (CDC1551(ΔdosR) mutant; gene MT0658 Rv0630c recB): 1.021
log2 Fold change (CDC1551(ΔdosR) mutant; gene MT0705 Rv0676c mmpL5): 1.881
log2 Fold change (CDC1551(ΔdosR) mutant; gene MT0706 Rv0677c mmpS5): 1.662
log2 Fold change (CDC1551(ΔdosR) mutant; gene MT0706.1 Rv0678): 1.572
log2 Fold change (CDC1551(ΔdosR) mutant; gene MT0772.5 Rv0747 PE_PGRS): 1.043
log2 Fold change (CDC1551(ΔdosR) mutant; gene MT0808 Rv0784): 2.116
Counts per million (CPM) (CDC1551(ΔdosR) mutant; gene MT0901 Rv0878c PPE): 18.57 CPM and 12.14 CPM
log2 Fold change (CDC1551(ΔdosR) mutant; gene MT0901 Rv0878c PPE): −1.047
Counts per million (CPM) (CDC1551(ΔdosR) mutant; gene MT0908 Rv0885): 437.9 CPM and 441.4 CPM
log2 Fold change (CDC1551(ΔdosR) mutant; gene MT0908 Rv0885): −3.4
Counts per million (CPM) (CDC1551(ΔdosR) mutant; gene MT0909 Rv0886 fprB): 103.6 CPM and 55.4 CPM
log2 Fold change (CDC1551(ΔdosR) mutant; gene MT0909 Rv0886 fprB): −3.149
Counts per million (CPM) (CDC1551(ΔdosR) mutant; gene MT0911 Rv0888): 9.416 CPM and 8.907 CPM
log2 Fold change (CDC1551(ΔdosR) mutant; gene MT0911 Rv0888): −1.599
Counts per million (CPM) (CDC1551(ΔdosR) mutant; gene MT0915.1): 9.867 CPM and 9.495 CPM
log2 Fold change (CDC1551(ΔdosR) mutant; gene MT0915.1): −1.202
log2 Fold change (CDC1551(ΔdosR) mutant; gene MT0956 Rv0929 pstC2): 1.037
Counts per million (CPM) (CDC1551(ΔdosR) mutant; gene MT1019 Rv0990c): 62.69 CPM and 83.49 CPM
log2 Fold change (CDC1551(ΔdosR) mutant; gene MT1019 Rv0990c): −1.236
Counts per million (CPM) (CDC1551(ΔdosR) mutant; gene MT1020): 529.4 CPM and 1,032.48 CPM
log2 Fold change (CDC1551(ΔdosR) mutant; gene MT1020): −1.261
log2 Fold change (CDC1551(ΔdosR) mutant; gene MT1073 Rv1043c): 1.069
log2 Fold change (CDC1551(ΔdosR) mutant; gene MT1123 Rv1091 PE_PGRS): 1.015
Counts per million (CPM) (CDC1551(ΔdosR) mutant; gene MT1224 Rv1187 rocA): 50.05 CPM and 29.85 CPM
log2 Fold change (CDC1551(ΔdosR) mutant; gene MT1224 Rv1187 rocA): −1.028
Counts per million (CPM) (CDC1551(ΔdosR) mutant; gene MT1233 Rv1195 PE): 282.5 CPM and 86.53 CPM
log2 Fold change (CDC1551(ΔdosR) mutant; gene MT1233 Rv1195 PE): −1.537
log2 Fold change (CDC1551(ΔdosR) mutant; gene MT1296 Rv1257c): 1.198
log2 Fold change (CDC1551(ΔdosR) mutant; gene MT1297 Rv1258c): 1.744
log2 Fold change (CDC1551(ΔdosR) mutant; gene MT1303 Rv1265): 1.132
Counts per million (CPM) (CDC1551(ΔdosR) mutant; gene MT1385): 26.31 CPM and 28.68 CPM
log2 Fold change (CDC1551(ΔdosR) mutant; gene MT1385): −1.733
log2 Fold change (CDC1551(ΔdosR) mutant; gene MT1424 Rv1380 pyrB): 1.245
log2 Fold change (CDC1551(ΔdosR) mutant; gene MT1425 Rv1381 pyrC): 1.176
log2 Fold change (CDC1551(ΔdosR) mutant; gene MT1426): 1.289
log2 Fold change (CDC1551(ΔdosR) mutant; gene MT1427 Rv1383 car A): 1.005
log2 Fold change (CDC1551(ΔdosR) mutant; gene MT1428 Rv1384 carB): 1.115
log2 Fold change (CDC1551(ΔdosR) mutant; gene MT1429 Rv1385 pyrF): 1.522
Counts per million (CPM) (CDC1551(ΔdosR) mutant; gene MT1430 Rv1386 PE): 77.39 CPM and 47.87 CPM
log2 Fold change (CDC1551(ΔdosR) mutant; gene MT1430 Rv1386 PE): −1.005
Counts per million (CPM) (CDC1551(ΔdosR) mutant; gene MT1431 Rv1387 PPE): 317.7 CPM and 543.6 CPM
log2 Fold change (CDC1551(ΔdosR) mutant; gene MT1431 Rv1387 PPE): −1.201
Counts per million (CPM) (CDC1551(ΔdosR) mutant; gene MT1484 Rv1439c): 6.965 CPM and 6.852 CPM
log2 Fold change (CDC1551(ΔdosR) mutant; gene MT1484 Rv1439c): −1.508
Counts per million (CPM) (CDC1551(ΔdosR) mutant; gene MT1585.1): 293.5 CPM and 393.7 CPM
log2 Fold change (CDC1551(ΔdosR) mutant; gene MT1585.1): −2.24
Counts per million (CPM) (CDC1551(ΔdosR) mutant; gene MT1586 Rv535 Rv1535): 44.69 CPM and 38.96 CPM
log2 Fold change (CDC1551(ΔdosR) mutant; gene MT1586 Rv535 Rv1535): −1.971
log2 Fold change (CDC1551(ΔdosR) mutant; gene MT1620 Rv1569 bioF): 1.182
Counts per million (CPM) (CDC1551(ΔdosR) mutant; gene MT1627): 22.44 CPM and 21.44 CPM
log2 Fold change (CDC1551(ΔdosR) mutant; gene MT1627): −1.25
Counts per million (CPM) (CDC1551(ΔdosR) mutant; gene MT1628 Rv1592c): 334.3 CPM and 332.3 CPM
log2 Fold change (CDC1551(ΔdosR) mutant; gene MT1628 Rv1592c): −1.21
Counts per million (CPM) (CDC1551(ΔdosR) mutant; gene MT1736): 181.3 CPM and 300.2 CPM
log2 Fold change (CDC1551(ΔdosR) mutant; gene MT1736): −1.039
Counts per million (CPM) (CDC1551(ΔdosR) mutant; gene MT1775): 17.8 CPM and 12.82 CPM

From patent US11717508B2, “Compounds, compositions, and methods for inhibiting bacterial growth” (priority 2016, dated 2023)
